For one experiment, the system named is YUMM1.7 tumors. Kind of experiment: Growth of YUMM1.7 tumors in human APOE knock-in mice under LXR-agonistic treatment. The format is in vivo, mouse. The settings on record: RGX-104 in chow, approximate target dose 100 mg/kg body weight, from day 3 post injection. How it is done:
To assess the impact of APOE genotype on the growth of syngeneic melanoma, 1×10^5 YUMM1.7 cells were subcutaneously injected into the flank of 6-10-weeks-old, sex-matched human APOE targeted replacement mice. Cells were injected in a total volume of 100 μL, and YUMM1.7 cells were mixed 1:1 with growth factor reduced Matrigel (356231, Corning) before injection. Tumor size was measured on the indicated days using digital calipers, and tumor volume was calculated as (small diameter)^2×(large diameter)×Π/6. In experiments employing YUMMER1.7 cells, 5×10^5 cells resuspended in PBS were injected subcutaneously into the flank. For LXR-agonistic treatment, mice were administered chow supplemented with the synthetic LXR-agonist RGX-104 (Rgenix (Tavazoie, M., et al. (2018) Cell, 172 (4), 825-840)) at 628.5 mg/kg chow (Research Diets, approximate target dose of 100 mg/kg body weight) starting on day 3 post injection. For anti-PD1 treatment, mice were injected intraperitoneally with 250 μg and 125 μg of anti-PD-1 antibody (BioXCell, clone RMP1-14) on days 6 and 9 post tumor cell injection, respectively. Control mice received PBS injections on the same days. For survival analysis in the YUMMER1.7 model, mice were euthanized when the tumor volume exceeded 1000 mm^3. Therapy responses were considered complete (CR, complete response) when tumor volumes fell below 16 mm^3 (lowest limit of detection).

A further experiment relates to solid cancers. As to the kind of experiment: RGX-104 in patients with solid cancers, radiographic tumor response by ApoE genotype. The format is in vivo, human. The settings on record: monotherapy or combination with docetaxel, nivolumab or ipilimumab. How it is done:
RGX-104 was administered to patients with solid cancers as a monotherapy or in combination with either docetaxel, nivolumab, or ipilimumab. Fifty-one patients were evaluable for both radiographic assessment of tumor response and ApoE genotype. Below is a table showing the number of patients with each genotype and the number of clinical responses (Partial Responses) to the therapy.

The mark [1] stands for this setting: ApoE genotype E2/E3 (10 patients).
Setting [2] is: ApoE genotype E2/E4 (3 patients).
The mark [3] stands for this setting: ApoE genotype E3/E3 (30 patients).
Where [4] appears, read: ApoE genotype E3/E4 (8 patients).

Molecules are shown by their SMILES.

From US20250250642A1, “APOE GENOTYPING IN CANCER PROGNOSTICS AND TREATMENT” (The Rockefeller University, priority 2019, published 2025) come the findings set out here.

`C[C@H](CCOc1cccc(CC(=O)O)c1)N(Cc1cccc(C(F)(F)F)c1Cl)CC(c1ccccc1)c1ccccc1` [RGX-104, 2-[3-[(3R)-3-[[2-chloro-3-(trifluoromethyl)phenyl]methyl-(2,2-diphenylethyl)amino]butoxy]phenyl]acetic acid]: the “efficacy of LXR agonism (tumor growth)” value in the experiment on YUMM1.7 tumors (APOE2 mice) was “completely abrogated”; with YUMM1.7 tumors (APOE4 mice), “robust anti-tumor effects”. Besides, the “Number of Partial Responses” value is listed as 0 in the experiment with solid cancers (setting [1]), 1 with solid cancers (setting [2]), 1 in the experiment with solid cancers (setting [3]) and 1 in the experiment on solid cancers (setting [4]). Besides, the “Percent of patients with a Partial Response” value with solid cancers (setting [1]) turned out to be 0%; in the experiment on solid cancers (setting [2]) it was 33.3%; in the experiment on solid cancers (setting [3]), 3.3%; with solid cancers (setting [4]) it was 12.5%.
